Experimental data as given in patent publication US20230293565A1, “USE OF WNT/BETA-CATENIN PATHWAY INHIBITORS TO BLOCK REPLICATION OF SARS-COV-2 AND OTHER PATHOGENIC VIRUSES” (THE GOVERNORS OF THE UNIVERSITY OF ALBERTA, priority 2020, published 2023).
“Also recorded” adds a separate entry of the source. Where two headings read alike, the source gives them in different places.

Legend:
[1] = tested on: Vero cells; assay type: cell-based, African green monkey; settings: 1 μM (Pyrvinium 100 nM), 48 hours
[2] = tested on: Zika virus (ZIKV); assay: Zika virus plaque assay and qRT-PCR in A549 cells; assay type: cell-based; settings: A549, 1 μM, 24 h pre-treatment, 0.1 MOI
Description: FIG. 17. Wnt/β-catenin inhibitors reduce replication of other RNA viruses. A549 cells were treated with Wnt/β-catenin inhibitors (1 μM) or DMSO alone for 24 hours, after which the cells were infected with 0.1 MOI of Zika virus (ZIKV) or Mayaro virus (MAYV). Forty-eight hours later, virus-containing media were subjected to plaque assays and total RNA extracted from cells was subjected to qRT-PCR to determine relative levels of viral RNA. Average viral titers (A,C) and genomic RNA levels (B, D) from drug-treated cells from 3 independent experiments are shown. Error bars represent standard error of the mean. *, P<0.05; **, P<0.01; N.S. (not significant).
(§1) Because Wnt/β-catenin inhibitors enhance the IFN response, we hypothesized that these drugs would be effective against other human coronaviruses and potentially other pathogenic RNA viruses such as flaviviruses and alphaviruses. To test this theory, Calu-3 and A549 cells treated with Wnt/β-catenin inhibitors or DMSO for 24 hours were infected with two different seasonal human coronavirus HCOV-NL63 and HCOV-229E for 24 hours or Zika virus or Mayaro virus for 48 and 24 hours respectively.

[3] = tested on: SARS-CoV-2 (CANADA/VIDO01/2020 strain); assay type: cell-based
[4] = tested on: HCOV-229E; assay: HCOV-229E plaque assay in Calu3 cells; assay type: cell-based
Description: (§2) FIG. 16. Effect of Wnt/β-catenin inhibitors on other human coronaviruses (HCOVs). Calu3 cells were treated with the indicated concentrations of Wnt/β-catenin inhibitors for 24 hours and then infected with HCOVs NL63 or 229E MOI of 0.5). Twenty-four hours later, media were collected and subjected to plaque assay to determine viral titers. Average titers from there independent experiments are shown.
as §1

[5] = tested on: HCOV-NL63; assay: HCOV-NL63 plaque assay in Calu3 cells; assay type: cell-based; settings: Calu3 treated 24 h, MOI 0.5, 24 h
Description: as §2, §1

[6] = tested on: Mayaro virus (MAYV); assay type: cell-based; settings: A549, 1 μM, 24 h pre-treatment, 0.1 MOI
[7] = tested on: type III (IFNλ2) interferon; assay type: cell-based, human; settings: A549 treated 24 h, Sendai virus 8 and 16 hours

| Compound | density of peroxisomes in Vero cells [1] | replication of Zika virus [2] | SARS-CoV-2 replication, drug added 6-hours post-infection (in words) [3] | SARS-CoV-2 replication, drug added 12-hours post-infection (in words) [3] | titers of HCOV-229E ([4]; Calu3 treated 24 h, MOI 0.5, 24 h) | titers of HCOV-NL63 [5] | replication of Mayaro virus [6] | induction of type III IFN (IFNλ2 transcripts) [7] | titers of HCOV-229E [4] |
| --- | --- | --- | --- | --- | --- | --- | --- | --- | --- |
| O=C([O-])CCN1C(=O)/C(=C/c2ccc(-c3ccc([N+](=O)[O-])cc3)o2)SC1=S.[K+] [KYA1797K] | increases peroxisome density | most potent | effectively block; also recorded: reduce SARS-CoV-2 replication | reduce SARS-CoV-2 replication | significantly reduced | significantly reduced | most potent | – | – |
| iCRT-14 | – | – | – | – | – | – | – | much more dramatic effects | – |
| Cc1cc(-c2ncc(CC(=O)Nc3ccc(-c4cnccn4)cn3)cc2C)ccn1 [LGK-974] | – | – | effectively block | – | – | – | – | – | – |
| Cc1cc(/C=C/c2ccc3cc(N(C)C)ccc3[n+]2C)c(C)n1-c1ccccc1 [Pyrvinium] | – | – | effectively block; also recorded: reduce SARS-CoV-2 replication | reduce SARS-CoV-2 replication | – | significantly reduced | – | much more dramatic effects | significantly reduced |
